O=C1CCCC(=O)O1
solubility (mole fraction)
Conditions	in 1,2-dichloroethane	in DMAc	in DMF	in acetone	in acetonitrile	in dichloromethane	in ethyl acetate	in methyl acetate	in n-butyl acetate	in n-propyl acetate
278.15 K	0.448	0.73	0.549	0.444	0.591	0.425	0.107	0.294	0.12	0.234
283.15 K	0.555	0.789	0.594	0.524	0.648	0.51	0.156	0.384	0.145	0.301
288.15 K	0.631	0.83	0.663	0.623	0.705	0.597	0.206	0.444	0.181	0.407
293.15 K	0.7	0.852	0.705	0.676	0.764	0.641	0.273	0.551	0.246	0.505
298.15 K	0.773	0.877	0.74	0.76	0.809	0.709	0.383	0.646	0.322	0.592
303.15 K	0.807	0.905	0.795	0.815	0.844	0.78	0.506	0.7	0.451	0.712
308.15 K	0.866	0.923	0.822	0.884	0.879	0.824	0.618	0.808	0.582	0.817
313.15 K	0.922	0.935	0.87	0.918	0.918	0.896	0.75	0.874	0.736	0.908

— BigSolDB 2.1
